29 compounds from patent publication US6369069B1 (Aventis Pharma Deutschland GmbH, priority 1998, dated 2002) can be followed below.

Structures are written as SMILES.

The test system of data set [1] is Na^+-dependent Cl^−/HCO3^− exchanger (NCBE). The experiment in a line: Inhibition of the Na+-dependent Cl−/HCO3− exchanger (NCBE) in human endothelial cells (pHi recovery, BCECF fluorescence, FLIPR). Format: cell-based. Conditions: for Residual activity % of the NCBE at 10 μM: compound at 10 μM, sub-table with R7 substituent; for Residual activity of the NCBE at 10 μM: 10 μM compound, human endothelial cells (ECV-304), related to 100% and 0% pHi recovery controls. The method in brief: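 ECV-304 cells loaded with 5 μM BCECF-AM in NH4Cl-containing saline, then placed in Na+/HCO3−-free buffer to acidify. pHi recovery started with Na+/HCO3− buffer (50 μM HOE 642) plus compound at various concentrations. Fluorescence kinetics over 2 min at 35 °C, normalised to 100% and 0% (HCO3−-free) controls.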

Regarding `Cc1ccc(-c2ccc(CN(Cc3ccc4ccccc4c3)C(=O)Cc3ccsc3)cc2)c(S(=O)(=O)NC#N)c1` [Example 539], the “Residual activity % of the NCBE at 10 μM” value in data set [1] worked out at 65.2%.

On to `Cc1ccc(-c2ccc(CN(Cc3ccccc3Cl)C(=O)Cc3ccsc3)cc2)c(S(=O)(=O)NC#N)c1` [Example 540], for which, in data set [1], the “Residual activity % of the NCBE at 10 μM” value amounted to 64.6%.

In the case of `Cc1ccc(-c2ccc(CN(Cc3cccs3)C(=O)Cc3ccsc3)cc2)c(S(=O)(=O)NC#N)c1` [Example 541], in data set [1], the “Residual activity % of the NCBE at 10 μM” value came to 52.8%.

Regarding `Cc1ccc(-c2ccc(CN(CCc3ccccc3)C(=O)Cc3ccsc3)cc2)c(S(=O)(=O)NC#N)c1` [Example 542], the “Residual activity % of the NCBE at 10 μM” value in data set [1] is reported as 67.4%.

With `Cc1ccc(-c2ccc(CN(Cc3ccccc3F)C(=O)Cc3ccsc3)cc2)c(S(=O)(=O)NC#N)c1` [Example 543], the “Residual activity % of the NCBE at 10 μM” value in data set [1] is 55.3%.

Turning to `Cc1ccc(-c2ccc(CN(Cc3cccc(Cl)c3Cl)C(=O)Cc3ccsc3)cc2)c(S(=O)(=O)NC#N)c1` [Example 544], the “Residual activity % of the NCBE at 10 μM” value in data set [1] came to 82.2%.

On to `Cc1ccc(-c2ccc(CN(Cc3ccccc3)C(=O)CC3CCCCC3)cc2)c(S(=O)(=O)NC#N)c1` [Example 545], for which the “Residual activity % of the NCBE at 10 μM” value in data set [1] is 70.1%.

Regarding `Cc1ccc(-c2ccc(CN(Cc3cccc4ccccc34)C(=O)CC3CCCCC3)cc2)c(S(=O)(=O)NC#N)c1` [Example 546], the “Residual activity % of the NCBE at 10 μM” value in data set [1] is 63.6%.

For the compound `Cc1ccc(-c2ccc(CN(Cc3ccc4ccccc4c3)C(=O)CC3CCCCC3)cc2)c(S(=O)(=O)NC#N)c1` [Example 547], the “Residual activity % of the NCBE at 10 μM” value in data set [1] turned out to be 76.5%.

In the case of `Cc1ccc(-c2ccc(CN(Cc3ccccc3Cl)C(=O)CC3CCCCC3)cc2)c(S(=O)(=O)NC#N)c1` [Example 548], the “Residual activity % of the NCBE at 10 μM” value in data set [1] was 65.2%.

For `Cc1ccc(-c2ccc(CN(Cc3cccs3)C(=O)CC3CCCCC3)cc2)c(S(=O)(=O)NC#N)c1` [Example 549], the “Residual activity % of the NCBE at 10 μM” value in data set [1] was determined as 67.3%.

`Cc1ccc(-c2ccc(CN(CCc3ccccc3)C(=O)CC3CCCCC3)cc2)c(S(=O)(=O)NC#N)c1` [Example 550]: the “Residual activity % of the NCBE at 10 μM” value in data set [1] is given as 63.3%.

Take `Cc1ccc(-c2ccc(CN(Cc3ccccc3F)C(=O)CC3CCCCC3)cc2)c(S(=O)(=O)NC#N)c1` [Example 551]: the “Residual activity % of the NCBE at 10 μM” value in data set [1] was determined as 82.6%.

As for `Cc1ccc(-c2ccc(CN(Cc3cccc(Cl)c3Cl)C(=O)CC3CCCCC3)cc2)c(S(=O)(=O)NC#N)c1` [Example 552], the “Residual activity % of the NCBE at 10 μM” value in data set [1] stood at 61.5%.

In the case of `N#CNS(=O)(=O)c1ccc(Cl)cc1-c1ccc(CN(Cc2ccccc2)C(=O)Cc2cccs2)cc1` [Example 553], in data set [1], the “Residual activity % of the NCBE at 10 μM” value stood at 85.7%.

On to `N#CNS(=O)(=O)c1ccccc1-c1ccc(CN(Cc2ccccc2)C(=O)Cc2cccs2)c(Cl)c1` [Example 554, 4′-{[Benzyl-(2-thiophen-2-ylacetyl)amino]methyl}-3′-chlorobiphenyl-2-sulfonylcyanamide], for which the “Residual activity of the NCBE at 10 μM” value in data set [1] was 15%.

Consider `CS(=O)(=O)c1cc(-c2ccccc2S(=O)(=O)NC#N)ccc1CN(Cc1ccccc1)C(=O)Cc1cccs1` [Example 555, 4′-{[Benzyl-(2-thiophen-2-ylacetyl)amino]methyl}-3′-methylsulfonyl-biphenyl-2-sulfonylcyanamide], for which the “Residual activity of the NCBE at 10 μM” value in data set [1] turned out to be 31%.

Take `N#CNS(=O)(=O)c1ccccc1-c1ccc(CN(Cc2ccccc2)S(=O)(=O)c2cccs2)c(Cl)c1` [Example 556, 4′-{[Benzyl-(2-thiophen-2-sulfonyl)amino]methyl}-3′-chlorobiphenyl-2-sulfonylcyanamide]: the “Residual activity of the NCBE at 10 μM” value in data set [1] is listed as 0%.

On to `CS(=O)(=O)c1cc(-c2ccccc2S(=O)(=O)NC#N)ccc1CN(Cc1ccccc1)S(=O)(=O)c1cccs1` [Example 557, 4′-{[Benzyl(thiophene-2-sulfonyl)amino]methyl}-3′-methylsulfonylbiphenyl-2-sulfonylcyanamide], for which the “Residual activity of the NCBE at 10 μM” value in data set [1] amounted to 14%.

Consider `COCCOc1cc(-c2ccccc2S(=O)(=O)NC#N)ccc1CN(Cc1ccccc1)S(=O)(=O)c1cccs1` [Example 558, 4′-{[Benzyl(thiophene-2-sulfonyl)amino]methyl}-3′-(2-methoxy)ethoxy-biphenyl-2-sulfonylcyanamide], for which the “Residual activity of the NCBE at 10 μM” value in data set [1] worked out at 30%.

For the compound `COCCOc1cc(-c2ccccc2S(=O)(=O)NC#N)ccc1CN(Cc1ccccc1)C(=O)Cc1cccs1` [Example 560, 4′-{[Benzyl-2-(thiophen-2-yl)acetylamino]methyl}-3′-(2-methoxy)ethoxy-biphenyl-2-sulfonylcyanamide], the “Residual activity of the NCBE at 10 μM” value in data set [1] stood at 8.0%.

What is called melting point is the temperature of the solid-liquid transition. For `Cc1ccccc1CC(=O)N(Cc1ccccc1)Cc1ccc(-c2ccccc2S(=O)(=O)NC#N)cc1` [Example 561, 4′-{[Benzyl-2-(2-methylphenyl)acetylamino]methyl}biphenyl-2-sulfonylcyanamide], the melting point is 108 °C (dec.). In data set [1], the “Residual activity of the NCBE at 10 μM” value is 16%.

As for `N#CNS(=O)(=O)c1ccccc1-c1ccc(CN(Cc2ccccc2)C(=O)Cc2ccccc2C(F)(F)F)cc1` [Example 562, 4′-{[Benzyl-2-(2-trifluoromethylphenyl)acetylamino]methyl}biphenyl-2-sulfonylcyanamide], the melting point is 90 °C (dec.). The “Residual activity of the NCBE at 10 μM” value in data set [1] was determined as 33%.

Take `N#CNS(=O)(=O)c1ccccc1-c1ccc(CN(Cc2ccccc2)C(=O)Cc2ccccc2OC(F)(F)F)cc1` [Example 563, 4′-{[Benzyl-2-(2-trifluoromethoxyphenyl)acetylamino]methyl}biphenyl-2-sulfonylcyanamide]: the melting point is 125 °C (dec.). In data set [1], the “Residual activity of the NCBE at 10 μM” value is 46%.

As to `N#CNS(=O)(=O)c1ccccc1-c1ccc(CN(Cc2ccccc2)C(=O)Cc2ccccc2SC(F)(F)F)cc1` [Example 564], the melting point is 122 °C (dec.). Also, the “Residual activity of the NCBE at 10 μM” value in data set [1] is 23%.

With `Cc1ccccc1C(=O)N(Cc1ccccc1)Cc1ccc(-c2ccccc2S(=O)(=O)NC#N)cc1` [Example 565, 4′-{[Benzyl-2-methylbenzoylamino]methyl}biphenyl-2-sulfonylcyanamide], the melting point is 173 °C (dec.). The “Residual activity of the NCBE at 10 μM” value in data set [1] stood at 42%.

Take `N#CNS(=O)(=O)c1ccccc1-c1ccc(CN(Cc2ccccc2)C(=O)c2ccccc2C(F)(F)F)cc1` [Example 566, 4′-{[Benzyl-2-trifluoromethylbenzoylamino]methyl}biphenyl-2-sulfonylcyanamide]: the melting point was 165 °C (dec.). For the same compound, the “Residual activity of the NCBE at 10 μM” value in data set [1] is 72%.

For `N#CNS(=O)(=O)c1ccccc1-c1ccc(CN(Cc2ccccc2)C(=O)c2ccccc2OC(F)(F)F)cc1` [Example 567, 4′-{[Benzyl-2-trifluoromethoxybenzoylamino]methyl}biphenyl-2-sulfonylcyanamide], the melting point is 160 °C (dec.). Further, in data set [1], the “Residual activity of the NCBE at 10 μM” value was 69%.

For the compound `Cc1ccc(C(=O)N(Cc2ccccc2)Cc2ccc(-c3ccccc3S(=O)(=O)NC#N)cc2)s1` [Example 568, 4′-{[Benzyl-(5-methylthiophen-2-yl)carbonylamino]methyl}biphenyl-2-sulfonylcyanamide], the melting point was 166 °C (dec.). For the same compound, the “Residual activity of the NCBE at 10 μM” value in data set [1] is reported as 70%.
